# Experimental data: patent publication US12090225B2 (Avalyn Pharma Inc., priority 2018, dated 2024)
# Where two headings read alike, the source gives them in different places. Marks after values point to notes of the source that are not given here.
# Assays:
# [1] = tested on: silica pulmonary fibrosis; assay: Therapeutic silica pulmonary fibrosis model: lung function (elastance, Flexivent); assay type: in vivo, C57BL/6 mice; conditions: silica mice
# Protocol: Sham and silica control groups received saline either IN or PO. Five animals were enrolled into sham groups, 10 animals enrolled into each PO dose groups, and 13 animals were enrolled into each IN dosing group. […] Body weights were collected throughout the study, with lung weights at termination. Flexivent was performed to determine elastance (lung function; Table 59). […] The ventilator determined the elastance of each lung as a measure of lung stiffness/fibrosis by inflating the lungs and assessing changes in flow and pressure.
# [2] = HBr and HCl salts-filter compatibility study; assay type: physicochemical; conditions: 0.22 μm PTFE filter; 3% PG solution; glass vials, ambient room condition
# Protocol: HBr and HCl salts-filter compatibility study: this study was conducted to assess the compatibility of the HBr and the HCl salts with various membrane filters. […] The glass vials were stored at ambient room condition and visual appearance was periodically inspected.
# [3] = Dynamic Vapour Sorption (DVS) hygroscopicity; assay type: physicochemical; conditions: for DVS mass uptake at 90% RH: 25° C., uptake from input material; for Hygroscopicity: DVS
# Protocol: Dynamic Vapour Sorption (DVS). Approximately, 10 mg of sample was placed into a mesh vapour sorption balance pan and loaded into a DVS-1 or DVS Advantage dynamic vapour sorption balance by Surface Measurement Systems. The sample was subjected to a ramping profile from 40-90% relative humidity (RH) at 10% increments, maintaining the sample at each step until a stable weight had been achieved (dm/dt 0.004%, minimum step length 30 minutes, maximum step length 500 minutes) at 25° C. After completion of the sorption cycle, the sample was dried using the same procedure to 0% RH and then a second sorption cycle back to 40% RH. Two cycles were performed. The weight change during the sorption/desorption cycles were plotted, allowing for the hygroscopic nature of the sample to be determined. XRPD analysis was then carried out on any solid retained.
# [4] = Therapeutic silica model: dose levels and lung pharmacokinetic comparison; assay type: in vivo, C57BL/6 mice; conditions: Oral Gavage (PO) 30.0 mg/kg; mice
# Protocol: Briefly, acclimated 20-22 g female C57BL/6 mice were administered silica on day 1 by the intratracheal route. On the tenth day, treatment was initiated with either saline or nintedanib. […] Sham and silica control groups received saline either IN or PO. Five animals were enrolled into sham groups, 10 animals enrolled into each PO dose groups, and 13 animals were enrolled into each IN dosing group. […] All animals were euthanized on day 30d. Body weights were collected throughout the study, with lung weights at termination. Flexivent was performed to determine elastance (lung function; Table 59). Left lungs were extracted, stained as assessed for parenchymal collagen (Table 60) and α-smooth muscle actin (αSMA; Table 61), while right lungs were assessed for interleukin-1β (IL-1β; Table 62).
# Intranasal (IN) dose levels were selected by comparing lung pharmacokinetics following IN dosing to lung pharmacokinetics determined following 30 mg/kg oral gavage (PO).
# [5] = tested on: bleomycin pulmonary fibrosis; assay: Therapeutic bleomycin pulmonary fibrosis model: Ashcroft fibrosis score, hydroxyproline; assay type: in vivo, Sprague Dawley rats
# Protocol: Briefly, acclimated Sprague Dawley male rats (c.a. 253 grams at first dosing) were administered bleomycin on days 1, 2, 3 and 6 by the oropharyngeal (OP) route. On the eighth day, treatment was initiated with either saline or nintedanib. […] Ten animals were enrolled into each dosing group. […] All animals were euthanized on day 28d. Body weights were collected throughout the study, with lung weights at termination (Table 55). Left lungs were extracted and measured for hydroxyproline content, while […] were subjected to histology for Ashcroft fibrosis score determination (Table 56).
# [6] = Therapeutic bleomycin model: body weight gain, lung weight-to-body weight ratio, tolerability; conditions: bleomycin rats
# [7] = tested on: α-smooth muscle actin (αSMA); assay: Therapeutic silica model: lung α-smooth muscle actin; assay type: in vivo, C57BL/6 mice; conditions: silica mice
# Protocol: (§1) Briefly, acclimated 20-22 g female C57BL/6 mice were administered silica on day 1 by the intratracheal route. On the tenth day, treatment was initiated with either saline or nintedanib. […] Sham and silica control groups received saline either IN or PO. Five animals were enrolled into sham groups, 10 animals enrolled into each PO dose groups, and 13 animals were enrolled into each IN dosing group. […] Body weights were collected throughout the study, with lung weights at termination. Flexivent was performed to determine elastance (lung function; Table 59). Left lungs were extracted, stained as assessed for parenchymal collagen (Table 60) and α-smooth muscle actin (αSMA; Table 61), while right lungs were assessed for interleukin-1β (IL-1β; Table 62). Alpha-smooth muscle actin (αSMA) is a marker of myofibroblast, a key cell type present in fibrotic diseases, including IPF, and is required for production and deposition of collagen.
# [8] = Pattern stability screen of potential salts (40° C./75% RH, XRPD); assay type: physicochemical
# Protocol: XRPD analysis was carried out on a PANalytical X'pert pro, scanning the samples between 3 and 35° 20. The material was gently compressed and loaded onto a multi-well plate with Kapton or Mylar polymer film to support the sample.
# Primary Salt Screening. […] The solvent systems shown in Table were selected for salt screening. For sulfonic acids MEK was used instead of methanol and acetone:water 50:50 (v/v) was used instead of IPA:water to avoid any potential genotoxic impurities. Ca. […] If the acid was insoluble in the selected solvent, a slurry was used. If the acid was a liquid it was added to the API slurry from a stock solution in the allocated solvent. The mixtures of API/counterion/solvent were temperature cycled between ambient and 40° C. in 4 hour cycles for ca. 3 days. Any solids present were isolated and allowed to dry at ambient conditions, for ca. 30 minutes prior to analysis by XRPD. Where solutions were obtained they were evaporated to obtain solid material.
# [9] = tested on: interleukin-1β (IL-1β); assay: Therapeutic silica model: lung interleukin-1β; assay type: in vivo, C57BL/6 mice; conditions: silica mice
# Protocol: as §1
# [10] = tested on: parenchymal collagen; assay: Therapeutic silica model: parenchymal collagen (Picrosirius Red); assay type: in vivo, C57BL/6 mice; conditions: silica mice
# Protocol: Briefly, acclimated 20-22 g female C57BL/6 mice were administered silica on day 1 by the intratracheal route. On the tenth day, treatment was initiated with either saline or nintedanib. […] Sham and silica control groups received saline either IN or PO. Five animals were enrolled into sham groups, 10 animals enrolled into each PO dose groups, and 13 animals were enrolled into each IN dosing group. […] Body weights were collected throughout the study, with lung weights at termination. Flexivent was performed to determine elastance (lung function; Table 59). Left lungs were extracted, stained as assessed for parenchymal collagen (Table 60) and α-smooth muscle actin (αSMA; Table 61), while right lungs were assessed for interleukin-1β (IL-1β; Table 62). […] collagen was measured by Picrosirius Red (PSR) histopathological analysis. […] Due to the positive impact on other key fibrosis modulators (αSMA, IL-1β; Tables 61 and 62) and that silica-induced fibrosis was well-established prior to start of dosing, it is possible that extending the treatment time would ultimately impact parenchymal collagen.
# [11] = Allometric dose scaling from mouse and rat to human; conditions: for Predicted human half-life: Oral
# [12] = OP 0.05 mg/kg QD, bleomycin rats
# [13] = OP 0.25 mg/kg QD, bleomycin rats
# [14] = OP 0.375 mg/kg QD, bleomycin rats
# [15] = Oral Gavage (PO) 30 mg/kg BID, lung
# [16] = oral nintedanib HBr 30 mg/kg BID
smiles,measurement,setting,value
COC(=O)c1ccc2c(c1)NC(=O)/C2=C(\Nc1ccc(N(C)C(=O)CN2CCN(C)CC2)cc1)c1ccccc1 [Nintedanib HBr],"Elastance, Delta to Vehicle (%)",[1]; Oral Gavage (PO) 30 mg/kg BID,−122.2%
same,"Elastance, Sham Subtracted",[1]; Oral Gavage (PO) 30 mg/kg BID,−0.2
same,visual appearance after filtration,[2],no change in appearance through 1 month
same,DVS mass uptake at 90% RH,[3]; listed as HBr salt,ca. 4.5%
same,Hygroscopicity,[3]; listed as HBr,Hygroscopic
same,Post-DVS XRPD pattern,[3]; listed as HBr salt,remain unchanged
same,Lung AUC,[4],7.4 mg·h/kg
same,Lung Cmax,[4],1.1 µg/g
same,Fibrosis Score (SD) (Ashcroft),[5]; [12],2.7 (0.94)
same,"Fibrosis Score, Delta to Vehicle (%)",[5]; [12],−12.5%
same,Fibrosis Score (SD) (Ashcroft),[5]; [13],2.1 (0.97)
same,"Fibrosis Score, Delta to Vehicle (%)",[5]; [13],12.5%
same,Fibrosis Score (SD) (Ashcroft),[5]; [14],1.9 (0.48)
same,"Fibrosis Score, Delta to Vehicle (%)",[5]; [14],20.8%
same,"Body Weight Gain, Delta to Sham (%)",[6]; OP 0.05 mg/kg QD,−18.4%
same,"Body Weight Gain, Delta to Sham (%)",[6]; OP 0.25 mg/kg QD,−26.7%
same,"Body Weight Gain, Delta to Sham (%)",[6]; OP 0.375 mg/kg QD,−4.8%
same,αSMA (%),[7]; [15],22.8%
same,"αSMA, Delta to Vehicle (%)","[7]; Oral Gavage (PO) 30 mg/kg BID, p < 0.005",−47.7^b %
same,XRPD pattern after 72 hrs 40° C./75% RH,"[8]; Initial pattern 3, listed as HBr",3
same,XRPD pattern after 72 hrs 40° C./75% RH,[8]; Initial pattern 4,4
same,XRPD pattern after 72 hrs 40° C./75% RH,[8]; Initial pattern 5,5
same,"IL-1β, Delta to Vehicle (%)",[9]; Oral Gavage (PO) 30 mg/kg BID,−1.5%
same,IL-1β,[9]; [15],1001.0 pg/mL
same,"Parenchymal Collagen, Delta to Vehicle (%)",[10]; Oral Gavage (PO) 30 mg/kg BID,15.6%
same,Parenchymal Collagen,"[10]; Oral Gavage (PO) 30 mg/kg BID, Picrosirius Red",0.74
"COC(=O)c1ccc2c(c1)NC(=O)/C2=C(\Nc1ccc(N(C)C(=O)CN2CCN(C)CC2)cc1)c1ccccc1 [Nintedanib, methyl (3Z)-3-[[4-[methyl-[2-(4-methylpiperazin-1-yl)acetyl]amino]anilino]-phenylmethylidene]-2-oxo-1H-indole-6-carboxylate]",lung function (elastance),[1]; [16],Oral was also significant in improving lung function
same,Post-DVS XRPD pattern,[3],remain Pattern 1
same,DVS mass uptake at 90% RH,[3],ca. 1.7%
same,Hygroscopicity,[3],slightly hygroscopic
same,lung fibrosis score (Ashcroft),"[5]; Inhaled (OP) nintedanib HBr dose groups, bleomycin rats",dose responsive reduction in fibrosis score
same,anti-fibrotic activity compared with oral 60 mg/kg BID,[5]; inhaled high dose (0.375 mg/kg OP QD),more anti-fibrotic activity as oral
same,anti-fibrotic activity compared with oral 60 mg/kg BID,[5]; inhaled low dose (0.05 mg/kg OP QD),less anti-fibrotic activity than oral
same,anti-fibrotic activity compared with oral 60 mg/kg BID,[5]; inhaled mid-dose (0.25 mg/kg OP QD),equivalent amount of anti-fibrotic activity as oral
same,body weight gain,[6]; High dose OP (0.375 mg/kg nintedanib HBr QD),weight gain equivalent to sham animals
same,body weight gain,[6]; Oral (PO) 60 mg/kg nintedanib esylate BID,gained about half the weight of control animals
same,lung αSMA levels,[7]; oral and inhaled (IN) nintedanib HBr,"both oral and inhaled routes have a substantial impact reducing αSMA lung levels, with the inhaled low and oral doses showing significance"
same,lung IL-1β,[9]; Inhaled (IN) nintedanib HBr dose groups,"dose responsive reduction, with the high dose achieving significance"
same,lung IL-1β,[9]; [16],did not reduce IL-1β levels
same,Predicted human half-life,[11]; line of Mouse Oral 30.0 mg/kg,13.6 h
same,Predicted human half-life,[11]; line of Rat Oral 60.0 mg/kg,13.6 h
same,Predicted human ELF half-life (alpha),"[11]; from Mouse Inhaled […], 21-fold longer than animal lung half-life",84^c min
same,Predicted human ELF half-life (alpha),"[11]; from Mouse Inhaled […], ELF half-life 21-fold longer than animal lung half-life",84^c min
same,Predicted human ELF half-life (alpha),"[11]; from Rat Inhaled 0.05 mg/kg, 21-fold longer than animal lung half-life",294^c min
same,Predicted human ELF half-life (alpha),"[11]; from Rat Inhaled 0.25 mg/kg, 21-fold longer than animal lung half-life",294^c min
same,Predicted human ELF half-life (alpha),"[11]; from Rat Inhaled 0.375 mg/kg, 21-fold longer than animal lung half-life",294^c min
same,parenchymal collagen (PSR),[10]; inhalation (IN) or oral nintedanib HBr,not reversed by either inhalation or oral nintedanib treatment
